Laboratory results from PubChem BioAssay AID328 (DTP/NCI, 2004).
Values joined by “and” are separate entries in the source; they are usually repeats but may differ in a detail not shown here. Equal entries are not always repeated. Inconclusive results and toxic doses are left out. How the source made its calls: active means survival T/C of 150% or more; inactive means T/C below 125% in these data.

Tested on: BDF1 mice, P388 leukemia ip, median survival T/C
Assay: NCI In Vivo Anticancer Drug Screen. Data for tumor model P388 Leukemia (intraperitoneal) in B6D2F1 (BDF1) mice
Conditions: endpoint: median survival time, higher = longer survival
How it was run: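 Compound-treated tumour-bearing mice were compared with vehicle-treated controls. Survival was recorded, and the value is the treated-group measurement divided by the control-group measurement (T/C).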

[1] = dose: 50.0 mg/kg/injection, schedule: Q01DX009 (ip), vehicle: saline with Tween-80
[2] = dose: 100.0 mg/kg/injection, schedule: Q01DX009 (ip), vehicle: saline with Tween-80
[3] = dose: 200.0 mg/kg/injection, schedule: Q01DX009 (ip), vehicle: saline with Tween-80
[4] = dose: 3.12 mg/kg/injection, schedule: Q01DX009 (ip), vehicle: water
[5] = dose: 6.25 mg/kg/injection, schedule: Q01DX009 (ip), vehicle: water
[6] = dose: 12.5 mg/kg/injection, schedule: Q01DX009 (ip), vehicle: water
[7] = dose: 25.0 mg/kg/injection, schedule: Q01DX009 (ip), vehicle: water
[8] = dose: 25.0 mg/kg/injection, schedule: Q04DX003 (ip), vehicle: water
[9] = dose: 50.0 mg/kg/injection, schedule: Q04DX003 (ip), vehicle: water
[10] = dose: 100.0 mg/kg/injection, schedule: Q01DX009 (ip), vehicle: water
[11] = dose: 100.0 mg/kg/injection, schedule: Q04DX003 (ip), vehicle: water
[12] = dose: 100.0 mg/kg/injection, schedule: Q04DX003 (ip), vehicle: saline
[13] = dose: 100.0 mg/kg/injection, schedule: Q04DX003 (ip), vehicle: Klucel (hydroxypropylcellulose) (HPC)

Measured: T/C

CCOC(=O)N(CCN(C(=O)OCC)c1ccccc1)c1ccccc1
inactive: [1] 98 % of control | [2] 108 % of control | [3] 110 % of control

c1ccc2c(c1)Cc1nc3ccccc3nc1-2
inactive: [4] 87 % of control | [5] 101 % of control and 110 % of control | [6] 87 % of control and 110 % of control | [7] 93 % of control and 106 % of control and 114 % of control | [8] 116 % of control | dose: 50.0 mg/kg/injection, schedule: Q01DX009 (ip), vehicle: water 89 % of control and 95 % of control | [9] 102 % of control | [10] 87 % of control and 110 % of control | [11] 103 % of control | dose: 200.0 mg/kg/injection, schedule: Q01DX009 (ip), vehicle: water 98 % of control | dose: 200.0 mg/kg/injection, schedule: Q04DX003 (ip), vehicle: water 104 % of control | dose: 400.0 mg/kg/injection, schedule: Q01DX009 (ip), vehicle: water 104 % of control | dose: 400.0 mg/kg/injection, schedule: Q04DX003 (ip), vehicle: water 113 % of control

CC1N/C(=C/c2ccccc2)C(=O)O1 (stereo not given)
inactive: [1] 118 % of control | [2] 121 % of control

COc1ccc(CC2c3cc(OC)c(OC)cc3CCN2C(=O)OCc2ccccc2)cc1OC (stereo not given)
inactive: dose: 50.0 mg/kg/injection, schedule: Q01DX005 (ip), vehicle: saline with Tween-80 91 % of control | dose: 100.0 mg/kg/injection, schedule: Q01DX005 (ip), vehicle: saline with Tween-80 93 % of control | dose: 200.0 mg/kg/injection, schedule: Q01DX005 (ip), vehicle: saline with Tween-80 92 % of control

O=C(NO)Nc1nc(Cl)c(Cl)nc1Cl
inactive: [4] 104 % of control | [5] 110 % of control | dose: 6.25 mg/kg/injection, schedule: Q04DX003 (ip), vehicle: water 98 % of control and 101 % of control | [6] 110 % of control | dose: 12.5 mg/kg/injection, schedule: Q04DX003 (ip), vehicle: water 100 % of control and 113 % of control | [7] 118 % of control | [8] 98 % of control and 118 % of control | [9] 100 % of control and 109 % of control | [10] 118 % of control | [11] 109 % of control

CCCCCCCCCCCCCCCCC(C(=O)O)C(O)(CC(=O)O)C(=O)O (stereo not given)
inactive: dose: 25.0 mg/kg/injection, schedule: Q01DX010 (ip), vehicle: saline 104 % of control | dose: 50.0 mg/kg/injection, schedule: Q01DX010 (ip), vehicle: saline 100 % of control

O=C1c2ccccc2-c2cccc3cccc1c23
inactive: dose: 6.25 mg/kg/injection, schedule: Q01DX001 (ip), vehicle: saline sonified 96 % of control | dose: 12.5 mg/kg/injection, schedule: Q01DX001 (ip), vehicle: saline sonified 96 % of control | dose: 25.0 mg/kg/injection, schedule: Q01DX001 (ip), vehicle: saline sonified 92 % of control

O=COc1ccc([N+](=O)[O-])cc1
inactive: dose: 25.0 mg/kg/injection, schedule: Q04DX003 (ip), vehicle: saline 95 % of control | dose: 50.0 mg/kg/injection, schedule: Q04DX003 (ip), vehicle: saline 100 % of control | [12] 100 % of control

COP(=O)(OC)OC=C(Cl)Cl
inactive: dose: 6.25 mg/kg/injection, schedule: Q01DX009 (ip), vehicle: saline with Tween-80 100 % of control | dose: 12.5 mg/kg/injection, schedule: Q01DX009 (ip), vehicle: saline with Tween-80 103 % of control | dose: 25.0 mg/kg/injection, schedule: Q01DX009 (ip), vehicle: saline with Tween-80 102 % of control

NC(Cc1ccc([N+](=O)[O-])cc1)C(=O)O (stereo not given)
inactive: [2] 105 % of control | dose: 100.0 mg/kg/injection, schedule: Q01DX009 (ip), vehicle: saline 100 % of control | dose: 100.0 mg/kg/injection, schedule: Q04DX003 (ip), vehicle: other 100 % of control | [3] 110 % of control | dose: 200.0 mg/kg/injection, schedule: Q01DX009 (ip), vehicle: saline 100 % of control | dose: 200.0 mg/kg/injection, schedule: Q04DX003 (ip), vehicle: other 104 % of control | dose: 400.0 mg/kg/injection, schedule: Q01DX009 (ip), vehicle: saline with Tween-80 90 % of control | dose: 400.0 mg/kg/injection, schedule: Q01DX009 (ip), vehicle: saline 86 % of control | dose: 400.0 mg/kg/injection, schedule: Q04DX003 (ip), vehicle: other 100 % of control

c1ccc(CCCSc2ccccc2)cc1
inactive: dose: 100.0 mg/kg/injection, schedule: Q04DX003 (ip), vehicle: saline with Tween-80 118 % of control | dose: 200.0 mg/kg/injection, schedule: Q04DX003 (ip), vehicle: saline with Tween-80 113 % of control | dose: 400.0 mg/kg/injection, schedule: Q04DX003 (ip), vehicle: saline with Tween-80 109 % of control

CNC(=N)c1ccc(NC(=N)c2ccc(NC(=O)Nc3ccc(NC(=O)Nc4ccc(C(=N)Nc5ccc(C(=N)NC)cc5)cc4)cc3)cc2)cc1
active: dose: 4.0 mg/kg/injection, schedule: Q04DX003 (ip), vehicle: Klucel (hydroxypropylcellulose) (HPC) 154 % of control | dose: 6.0 mg/kg/injection, schedule: Q04DX003 (ip), vehicle: Klucel (hydroxypropylcellulose) (HPC) 150 % of control and 154 % of control | dose: 7.0 mg/kg/injection, schedule: Q01DX009 (ip), vehicle: Klucel (hydroxypropylcellulose) (HPC) 161 % of control | dose: 9.0 mg/kg/injection, schedule: Q04DX003 (ip), vehicle: Klucel (hydroxypropylcellulose) (HPC) 159 % of control | dose: 11.0 mg/kg/injection, schedule: Q01DX009 (ip), vehicle: Klucel (hydroxypropylcellulose) (HPC) 150 % of control | dose: 13.0 mg/kg/injection, schedule: Q04DX003 (ip), vehicle: Klucel (hydroxypropylcellulose) (HPC) 176 % of control and 177 % of control | dose: 16.5 mg/kg/injection, schedule: Q01DX009 (ip), vehicle: Klucel (hydroxypropylcellulose) (HPC) 192 % of control | dose: 20.0 mg/kg/injection, schedule: Q04DX003 (ip), vehicle: Klucel (hydroxypropylcellulose) (HPC) 153 % of control | dose: 25.0 mg/kg/injection, schedule: Q01DX009 (ip), vehicle: Klucel (hydroxypropylcellulose) (HPC) 231 % of control | dose: 30.0 mg/kg/injection, schedule: Q04DX003 (ip), vehicle: Klucel (hydroxypropylcellulose) (HPC) 176 % of control | dose: 44.0 mg/kg/injection, schedule: Q04DX003 (ip), vehicle: Klucel (hydroxypropylcellulose) (HPC) 160 % of control and 207 % of control | dose: 67.0 mg/kg/injection, schedule: Q04DX003 (ip), vehicle: Klucel (hydroxypropylcellulose) (HPC) 173 % of control and 207 % of control | [13] 230 % of control (2×) and 156 % of control | dose: 150.0 mg/kg/injection, schedule: Q04DX003 (ip), vehicle: Klucel (hydroxypropylcellulose) (HPC) 160 % of control and 211 % of control

CCC12C=CCN3CCC4(c5cc(C(c6ccc(OC)cc6)c6cc7ccccc7[nH]6)c(OC)cc5N(C)C4C(O)(CO)C1O)C32 (stereo not given)
inactive: dose: 2.0 mg/kg/injection, schedule: Q01DX009 (ip), vehicle: saline 104 % of control | dose: 4.0 mg/kg/injection, schedule: Q01DX009 (ip), vehicle: saline 98 % of control | dose: 8.0 mg/kg/injection, schedule: Q01DX009 (ip), vehicle: saline 95 % of control | dose: 16.0 mg/kg/injection, schedule: Q01DX009 (ip), vehicle: saline 98 % of control | dose: 32.0 mg/kg/injection, schedule: Q01DX009 (ip), vehicle: saline 104 % of control

COc1ccc(C)cc1CN1NC(=O)CC1=N
inactive: dose: 100.0 mg/kg/injection, schedule: Q01DX009 (ip), vehicle: Klucel (hydroxypropylcellulose) (HPC) 100 % of control | [13] 100 % of control | dose: 200.0 mg/kg/injection, schedule: Q01DX009 (ip), vehicle: Klucel (hydroxypropylcellulose) (HPC) 109 % of control | dose: 200.0 mg/kg/injection, schedule: Q04DX003 (ip), vehicle: Klucel (hydroxypropylcellulose) (HPC) 122 % of control | dose: 400.0 mg/kg/injection, schedule: Q01DX009 (ip), vehicle: Klucel (hydroxypropylcellulose) (HPC) 100 % of control | dose: 400.0 mg/kg/injection, schedule: Q04DX003 (ip), vehicle: Klucel (hydroxypropylcellulose) (HPC) 94 % of control

CC1(C)OCC(=NNC(N)=O)CO1
inactive: [12] 98 % of control
